Measured values from patent US7371829B2, “Haptens, immunogens, antibodies and conjugates to ketamine and its metabolites” (Randox Laboratories Limited, priority 2002, dated 2008).

Key:
[1] = system: antiserum raised to immunogen C (hapten C-BSA), IgG fraction; experiment: Competitive ELISA microtiter plate assay for ketamine and norketamine (conjugate A, hapten A-HRP, as detection reagent); format: binding, sheep; conditions: for IC50, CR = concentration of potential cross-reactant that causes 50% displacement of signal: potential cross-reactants, standards 0-500 ng/ml
Protocol: An aqueous solution of the immunogen prepared in Example 10 was formulated with Freund's Complete Adjuvant (FCA) to form an emulsion consisting of 4 mg/ml immunogen in 50% (v/v) FCA. Three sheep were immunised with this emulsion (1° immunisation), 0.25 ml being subcutaneously injected at each of four sites in the flank of each animal. The next immunisation (boost 1) contained 2 mg/ml immunogen and subsequent immunizations (boosts 2 to 11) contained 1 mg/ml immunogen. All boosts were emulsified in 50% (v/v) Freund's Incomplete Adjuvant (FIA) and were administered in the same manner as the 1° immunisation, at monthly intervals for 1 year. Blood sampling took place 7 to 14 days after each boost. Each sample was processed to produce antiserum, which was further purified by caprylic acid and ammonium sulfate precipitation to yield an immunoglobulin G (IgG) fraction. The IgG fraction was evaluated by competitive ELISA microtiter plate assay, as described in Example 16 below.
The wells of an enhanced binding 96 well polystyrene microtiter plate were coated with the IgG fraction of the antiserum raised to immunogen C (hapten C-BSA) (Example 10), diluted in 10 mM Tris, pH 8.5 (125 μl/well). The appropriate antibody coating dilution was determined using standard ELISA checkerboard techniques. The plate was incubated for 2 hours at 37° C., washed 4 times with Tris buffered saline containing Tween 20 (TBST) and tapped dry. Standard solutions of ketamine and norketamine were prepared in TBST at 0, 0.1, 0.5, 1, 5, 25, 100 and 500 ng/ml and 50 μl of each was added to the appropriate wells (FIG. 4). 75 μl of conjugate A (hapten A-HRP) (Example 11), diluted in Tris buffer (pH 7.2) containing EDTA, D-mannitol, sucrose, thimerosal and BSA, was added to each of the wells, as shown in FIG. 4. The appropriate dilution of conjugate was also determined using standard ELISA checkerboard techniques. The plate was incubated at 37° C. for 2 hours. Excess unbound conjugate was removed by washing 6 times over a 10 minute period with TBST.
125 μl of tetramethylbenzidine (TMB) substrate solution was added to each well of the plate that was then incubated for 15 to 20 minutes in the dark at room temperature. The reaction was terminated by addition of 125 μl 0.2M H2SO4 to each well. The absorbance was then measured at 450 nm using a microtiter plate reader.
In order to determine the specificity of the competitive ELISA for ketamine and norketamine, standard solutions were prepared in TBST at 0, 0.1, 0.5, 1, 5, 25, 100 and 500 ng/ml. Employing each series of standards in the ketamine competitive ELISA, calibration curves were generated and these were used to determine the cross-reactivity of the immunoassay with these substances. The results of this study are presented in Table 2, cross-reactivity of potential cross-reactants phencyclidine and dextromethorphan being calculated according to the following formula: % CR=IC50, Ketamine/IC50, CR×100
Where %CR is the percentage cross-reactivity, IC50, Ketamine is the concentration of ketamine that causes 50% displacement of signal and IC50, CR is the concentration of potential cross-reactant that causes 50% displacement of signal.

[2] = system: antibodies to PCP and other arylcyclohexylamines; conditions: as indicated by high IC50 values, Table 1, page 667 of Owens et al; cited from earlier work
[3] = system: antibodies against five epitopes of phencyclidine (PCP)-like molecules; conditions: antibodies to PCP-like haptens conjugated to BSA; Table 2, page 475 of Owens et al; cited from earlier work
[4] = system: Neogen kit antibodies developed against a ketamine hapten; conditions: Neogen ELISA kit; cited from earlier work
[5] = system: antibodies to phenylcyclohexylamine derivative immunogens; conditions: Abbott immunoassay, Table 3(c) at page 18; cited from earlier work
[6] = antiserum to immunogen C, conjugate A
[7] = standard concentration 0.1 ng/ml
[8] = standard concentration 0.5 ng/ml
[9] = standard concentration 25 ng/ml
[10] = standard concentration 100 ng/ml
[11] = standard concentration 500 ng/ml
[12] = % CR=IC50, Ketamine/IC50, CR×100

SMILES | % CR = percentage cross-reactivity based on specificity to ketamine [1, 6] [%] | IC50 = standard concentration which produces 50% B/B0 [1, 6] [µg/mL] | % B/B0 [1, 7] [%] | % B/B0 [1, 8] [%] | % B/B0 ([1]; standard concentration 1 ng/ml) [%] | % B/B0 ([1]; standard concentration 5 ng/ml) [%] | % B/B0 [1, 9] [%] | % B/B0 [1, 10] [%] | % B/B0 [1, 11] [%] | cross-reactivity [2] | cross-reactivity [3] [%] | cross-reactivity [4] [%] | cross-reactivity [5] | % CR = percentage cross-reactivity based on specificity to ketamine [1, 12] [%] | IC50, CR = concentration of potential cross-reactant that causes 50% displacement of signal [1] [µg/mL]
CNC1(c2ccccc2Cl)CCCCC1=O (racemic) [Ketamine, (±)-2-(o-chlorophenyl)-2-(methylamino) cyclohexanone] | 100.0 | 0.0029 | 92.1 | 82.8 | 67.9 | 42.6 | 25.0 | 18.4 | 11.6 | low levels of cross-reactivity | < 0.6 | 100 | does not cross-react significantly |  | 
COc1ccc2c(c1)[C@]13CCCC[C@@H]1[C@H](C2)N(C)CC3 [Dextromethorphan] |  |  |  |  |  |  |  |  |  |  |  |  |  | <0.58 | >0.5
NC1(c2ccccc2Cl)CCCCC1=O (stereo not drawn) [Norketamine, [2-amino-2-(o-chlorophenyl)]cyclohexanone] | 138.1 | 0.0021 | 86.9 | 66.8 | 64.5 | 45.3 | 22.7 | 15.1 | 10.5 |  |  | 4.6 |  |  | 
c1ccc(C2(N3CCCCC3)CCCCC2)cc1 [Phencyclidine] |  |  |  |  |  |  |  |  |  |  |  |  |  | <0.58 | >0.5
